Data on 3 substances can be found in PMC11904221 (EMBO Molecular Medicine, 2025).

For experiment [1], the system named is chick chorioallantoic membrane. Nature of the experiment: Chick chorioallantoic membrane (CAM) angiogenesis assay. To be noted: 48 h, 100 nM each, individual CAM, n = 8; control 99-131.
Experiment [2] concerns CT-26 and MC-38 tumors. Nature of the experiment: Subcutaneous tumor growth of cells stably expressing APLN or APLN-DM. The format is in vivo, mouse.
The test system of experiment [3] is CT-26 and MC-38 cells. The experiment can be described thus: Soft agar, proliferation and apoptosis of cells expressing APLN or APLN-DM. To be noted: cancer cells expressing the construct.
Experiment [4] concerns retinal vasculature. Nature of the experiment: Retina angiogenesis assay. The format is in vivo, mouse. Also on record: unit not given here. To be noted: P5 mice, isolectin B4, individual values; control 74-89. The text has this:
(§1) Red arrows indicate the direction of vessel formation. […] All data are representative of three independent experiments. […] The two Furin cleavage sites are shown. […] (S–U) Plasmon waveguide resonance (PWR). […] Source data are available online for this figure.
(§2) Angiogenesis is a complex intercellular process involving the organization of various cells.
Following the treatment period, the mice were humanely euthanized, and their eyes were harvested. […] The retinas were carefully isolated and fixed in 4% PFA for 2 h at room temperature or overnight at 4 °C. After fixation, the retinas were blocked and permeabilized in a solution containing 1% bovine serum albumin (BSA) and 0.5% Triton X-100 overnight at 4 °C. Subsequently, the retinas were washed three times with a buffer solution composed of 0.5% Triton X-100, 1 mM CaCl2, 1 mM MgCl2, and 1 mM MnCl2 in PBS, pH 6.8. The retinas were then incubated with FITC-labeled Isolectin B4 (1:1000; Vector Laboratories) to label blood vessels. Following staining, the retinas were embedded in Tissue-Tek OCT Compound, and 10-μm cryosections were cut. Confocal immunofluorescence images were acquired with an inverted Nikon C2si Eclipse Ti-S microscope and analyzed using NIS-ElementsAR software (Nikon Instruments Europe B.V.).

Experiment [5] deals with CT-26 cells on CAM. Nature of the experiment: CAM implanted with CT-26 cells, tumor and vascularized area. The format is in vivo, chick. To be noted: individual values. The text has this:
(§3) Tumor growth, apoptosis, proliferation, and/or the angiogenic index of the developed tumors were first evaluated.
(§4) (A) Scheme and workflow of apelin-dm preclinic studies. […] (B–D) Error bars indicate s.e.m. center values indicate mean (Mann–Whitney U test). […] The percentage of relative staining intensity corresponding to CD31, Ki67, and BIM expression in CT-26 and MC-38 tumors of treated mice are shown in (I–N). Scale bar, 100 µm. Data represent mean ± s.e.m. of 3–4 independent experiments. P values were calculated with the Student t test in GraphPad. […] Quantification of tumor area (P) and vascularized area (Q) relative to control untreated CAMs (n = 3 CAM per group) assigned 100%. Data represent mean ± s.e.m. P values were calculated with the Student t test in GraphPad. […] (S, T) The average blood flow expressed in % relative to blood flow measured in […] (S) and MDA-MB231 (T) developed tumors. Data represent mean ± s.e.m. of 3–4 independent experiments. P values were calculated with the Student t test in GraphPad. Source data are available online for this figure.
Fertilized eggs were allowed to mature ex ovo. […] Immunohistology in toto was performed for vessel staining.

The subject of experiment [6] is aortic ring microvessel sprouting. The experiment can be described thus: Aortic ring assay. Also on record: species or system mouse. To be noted: 100 nM, VEGF 30 ng/ml.
Source text: as §2

In experiment [7] the test system is HUVEC. The experiment can be described thus: Tube-like formation assay. To be noted: read-out: EC50 (reduction of 50% of junction number); HUVEC on Geltrex, 18h treatment, 5 nM to 5 μM, GraphPad Prism.
Experiment [8] relates to HCT116 tumors. The experiment can be described thus: Tumor blood flow, laser Doppler, HCT116 tumors. It is filed as in vivo, mouse. To be noted: Bevacizumab 5 (mg/Kg), individual values.
Source text: as §3, §4
(§5) Additional experiments involved injecting 1 × 10^6 control CT-26/MC-38/MDA-MB231 cells into BALB/c, C57BL/6, or nude mice, respectively. […] LASER Doppler imaging assessed total blood flow, with FlowR® Hemodynamics visualization used for analysis. Results were expressed as % relative to pre-treatment tumor blood flow.

The conditions of experiment [9]: in vitro and in CAM assays; ref Ljoki et al, 2022; Ademi et al, 2021; cited from earlier work.
The test system of experiment [10] is MDA-MB-231 tumors. Nature of the experiment: Tumor blood flow, laser Doppler, MDA-MB-231 tumors. It is filed as in vivo, mouse. To be noted: Bevacizumab 5 (mg/Kg), individual values.
Source text: as §3, §4, §5

In experiment [11] the test system is HUVEC. The experiment can be described thus: VEGF-induced migration of HUVECs. The format is cell-based, human. To be noted: VEGF 30 ng/ml, apelin-dm 100 nM, individual values; control column 95-118.
Experiment [12] concerns ERK. To be noted: VEGF 30ng/mL, apelin-dm 100 nM, individual values n = 3.
Experiment [13] concerns HUVEC. The experiment can be described thus: HUVEC proliferation with VEGF, IncuCyte confluence. The format is cell-based, human.
Source text: as §1

“And” between values parts separate entries of the source, which are not always exact repeats. Equal entries are not always repeated.

Take “APLN: wild-type APLN stably expressed in CT-26 or MC-38 cells by lentiviral vector (QRPRLSHKGPMPF)”: the CAM vessel density in experiment [1] was 120 and 252 and 210 and 201 and 189 and 155 and 145 and 136. Besides, the tumor volume in experiment [2] (expressing cells, Rag2/γc, day 8, control 60.45, in mm³ (unit assumed)) was found to be 180.48; in experiment [2] (expressing cells, Rag2/γc, day 11, control 142, in mm³ (unit assumed)), 571; in experiment [2] (expressing cells, Rag2/γc, day 13, control 583.25, in mm³ (unit assumed)), 974.2; in [2] (expressing cells, Rag2/γc, day 15, control 887.52, in mm³ (unit assumed)) it was 1295.1; in [2] (expressing cells, Rag2/γc, day 18, control 1263.6, in mm³ (unit assumed)) it was 2221; in experiment [2] (expressing cells, Rag2/γc, day 20, control 2040.04, in mm³ (unit assumed)), 2868. The substance also gave a tumor volume in experiment [2] (tumor cells stably expressing the construct, Rag2/γc mice (Fig 2C), day 7, control 38.75) of 39.12. Moreover, in [3], the anchorage-independent growth entry was “twofold increased”. Besides, the retina vascularization in [4] was 84.9099 and 86.8403 and 90.0489 and 88.5208 and 85.3624 and 89.8292 and 92.0113 and 89.1254 and 85.4258 and 94.4967 and 90.4185 and 89.0824 and 95.2514 and 99.1254 and 85.2991 and 91.6992 and 83.1786 and 91.7618 and 93.6101. Moreover, the “CAM CT-26 quantification (Fig5P file)” value in experiment [5] (same data as sheet 5N) is 168 and 189 and 190. The “CAM CT-26 quantification (sheet 5N)” value in experiment [5] (tumor or vascularized area not given) is 168 and 189 and 190.
For the substance Bevacizumab, the “VEGF-induced aortic ring sprouting” value in experiment [6] is recorded as “apelin-dm was comparable in effect to Bevacizumab”. The EC50 in [7] was 0.083 µM and 0.13 µM. Further, the “tumor blood flow, % relative” value in experiment [8] was 86 and 65 and 70 and 63 and 59; in experiment [10], 82 and 75 and 69 and 51. In addition, in experiment [9], the “concentration with inhibitory effects” value is reported as “around 100 nM”.
Regarding VEGF, the HUVEC migration in experiment [11] is 160 and 250 and 188 and 208 and 299 and 320 and 199. Also, the “ERK phosphorylation relative to control untreated HUVEC assigned 100%” value in [12] was 144.293 and 157.045 and 122.733. The HUVEC confluence in experiment [13] (0 h, VEGF 30 ng/ml or apelin-dm 100 nM, means, n = 6 wells) is listed as 10; in experiment [13] (24 h), 19; in experiment [13] (48 h) it was 33; in [13] (72 h), 55; in [13] (96 h), 75; in experiment [13] (120 h), 82.
